Several values for one entry are separate records, joined by “and”; a condition that tells them apart may be missing. Identical values can stand only once.
What was measured:
Experiment in all cases: Kinase inhibition screen, cell-free 33P ATP assay at 10 μM
Type in all cases: biochemical
[1] = target: 140 purified human kinases (Homo sapiens, UniProt Q15418)
Method in brief: (§1)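 Each complex tested in duplicate at 10 μM; cell-free radiometric assay using ^33P ATP on purified enzymes. Hits mapped by HGNC symbol onto the kinome tree.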

[2] = target: T1, 140 purified human kinases (Homo sapiens, UniProt O75385)
T1 sequence (O75385 1-1050): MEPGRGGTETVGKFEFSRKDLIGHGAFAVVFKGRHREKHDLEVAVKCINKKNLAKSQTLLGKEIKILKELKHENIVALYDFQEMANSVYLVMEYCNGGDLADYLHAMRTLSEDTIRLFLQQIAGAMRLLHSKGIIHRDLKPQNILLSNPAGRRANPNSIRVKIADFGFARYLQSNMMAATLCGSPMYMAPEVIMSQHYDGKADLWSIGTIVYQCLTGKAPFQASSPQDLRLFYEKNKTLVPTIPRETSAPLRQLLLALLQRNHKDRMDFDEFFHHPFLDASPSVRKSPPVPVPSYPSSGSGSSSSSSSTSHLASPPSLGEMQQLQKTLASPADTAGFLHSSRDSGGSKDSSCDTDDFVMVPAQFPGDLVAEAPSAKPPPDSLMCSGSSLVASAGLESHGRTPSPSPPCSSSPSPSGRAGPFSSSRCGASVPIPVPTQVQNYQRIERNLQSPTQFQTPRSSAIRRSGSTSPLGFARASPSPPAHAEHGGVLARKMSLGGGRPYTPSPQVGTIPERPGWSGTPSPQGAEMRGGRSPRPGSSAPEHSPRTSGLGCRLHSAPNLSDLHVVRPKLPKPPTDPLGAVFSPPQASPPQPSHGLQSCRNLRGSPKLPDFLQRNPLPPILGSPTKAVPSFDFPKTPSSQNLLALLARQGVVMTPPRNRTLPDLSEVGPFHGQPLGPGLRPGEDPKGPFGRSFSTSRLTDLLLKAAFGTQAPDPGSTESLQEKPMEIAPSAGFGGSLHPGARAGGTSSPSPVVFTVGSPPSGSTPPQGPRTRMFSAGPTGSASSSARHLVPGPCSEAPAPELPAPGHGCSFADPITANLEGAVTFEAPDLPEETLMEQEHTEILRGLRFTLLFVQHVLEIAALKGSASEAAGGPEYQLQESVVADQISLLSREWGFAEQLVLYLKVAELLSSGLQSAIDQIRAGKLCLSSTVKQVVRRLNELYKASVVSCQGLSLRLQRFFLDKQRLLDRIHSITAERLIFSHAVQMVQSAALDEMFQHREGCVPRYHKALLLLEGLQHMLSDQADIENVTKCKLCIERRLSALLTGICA
Method in brief: as §1

[3] = target: 140 purified human kinases (Homo sapiens, UniProt P43405); details: SYK
Method in brief: as §1

[4] = target: T2, 140 purified human kinases (Homo sapiens, UniProt O00418); details: EF2K
T2 sequence (O00418 1-725): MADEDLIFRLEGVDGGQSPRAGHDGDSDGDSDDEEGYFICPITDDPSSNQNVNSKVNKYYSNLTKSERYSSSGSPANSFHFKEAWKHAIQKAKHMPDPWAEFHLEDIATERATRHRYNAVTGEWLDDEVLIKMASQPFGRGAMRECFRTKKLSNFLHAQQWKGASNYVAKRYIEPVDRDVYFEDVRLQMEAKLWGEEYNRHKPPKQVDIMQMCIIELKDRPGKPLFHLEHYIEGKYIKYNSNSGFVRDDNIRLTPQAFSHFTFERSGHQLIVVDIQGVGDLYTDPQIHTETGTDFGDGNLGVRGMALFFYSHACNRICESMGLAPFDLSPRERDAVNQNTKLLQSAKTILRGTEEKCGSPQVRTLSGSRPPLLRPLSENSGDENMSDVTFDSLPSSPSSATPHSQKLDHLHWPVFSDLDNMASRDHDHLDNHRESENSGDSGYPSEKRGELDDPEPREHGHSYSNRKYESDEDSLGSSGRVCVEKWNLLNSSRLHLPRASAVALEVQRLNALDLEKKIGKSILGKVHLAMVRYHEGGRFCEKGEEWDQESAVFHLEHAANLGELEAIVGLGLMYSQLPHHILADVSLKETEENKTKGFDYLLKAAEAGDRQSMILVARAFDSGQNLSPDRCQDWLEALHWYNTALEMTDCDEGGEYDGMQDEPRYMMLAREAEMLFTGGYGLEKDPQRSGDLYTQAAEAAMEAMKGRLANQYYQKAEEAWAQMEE
Method in brief: as §1

[5] = target: 140 purified human kinases (Homo sapiens, UniProt Q9HC98)
Chain of 140 purified human kinases (Homo sapiens, UniProt Q9HC98) (Q9HC98 whole entry): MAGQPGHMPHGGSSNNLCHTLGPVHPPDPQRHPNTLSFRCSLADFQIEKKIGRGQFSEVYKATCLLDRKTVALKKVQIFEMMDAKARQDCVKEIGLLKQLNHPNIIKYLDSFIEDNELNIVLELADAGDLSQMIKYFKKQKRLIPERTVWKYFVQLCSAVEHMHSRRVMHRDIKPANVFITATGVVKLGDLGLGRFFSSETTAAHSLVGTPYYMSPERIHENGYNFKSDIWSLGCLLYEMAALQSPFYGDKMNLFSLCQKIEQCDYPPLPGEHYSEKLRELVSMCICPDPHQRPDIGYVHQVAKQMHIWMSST
Method in brief: as §1

Chain of 140 purified human kinases (Homo sapiens, UniProt Q15418) (Q15418 whole entry): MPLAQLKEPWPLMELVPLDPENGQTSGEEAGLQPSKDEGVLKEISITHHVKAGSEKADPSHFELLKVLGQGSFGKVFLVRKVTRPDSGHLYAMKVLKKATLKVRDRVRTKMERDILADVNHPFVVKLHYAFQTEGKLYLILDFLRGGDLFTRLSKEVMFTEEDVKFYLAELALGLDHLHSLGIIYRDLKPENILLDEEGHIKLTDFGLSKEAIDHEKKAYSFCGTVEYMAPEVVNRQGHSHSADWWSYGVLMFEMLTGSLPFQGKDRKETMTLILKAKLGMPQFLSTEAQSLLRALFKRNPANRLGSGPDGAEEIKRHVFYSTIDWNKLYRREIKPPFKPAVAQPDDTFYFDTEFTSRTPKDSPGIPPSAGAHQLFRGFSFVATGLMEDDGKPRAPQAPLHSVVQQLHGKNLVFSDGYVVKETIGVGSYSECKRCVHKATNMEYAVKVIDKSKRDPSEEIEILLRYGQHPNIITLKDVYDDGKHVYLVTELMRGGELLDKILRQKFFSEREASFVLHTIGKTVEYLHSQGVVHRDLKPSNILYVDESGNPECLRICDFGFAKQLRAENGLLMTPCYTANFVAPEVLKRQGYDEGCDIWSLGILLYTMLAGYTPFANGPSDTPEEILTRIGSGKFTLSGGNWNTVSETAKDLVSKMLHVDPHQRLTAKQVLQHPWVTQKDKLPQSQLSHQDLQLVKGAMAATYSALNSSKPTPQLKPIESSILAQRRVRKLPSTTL

## CC(=O)[O-].CC(=O)[O-].CC(=O)[O-].CC(=O)[O-].CC(=O)[O-].CC(=O)[O-].[Zn+2].[Zn+2].[Zn+2].c1ccc(-c2csc(NCCN(CCNc3nc(-c4ccccn4)cs3)CCNc3nc(-c4ccccn4)cs3)n2)nc1.c1ccc(-c2csc(NCCN(CCNc3nc(-c4ccccn4)cs3)CCNc3nc(-c4ccccn4)cs3)n2)nc1 [[L2Zn3]6+]
[1]; RSK1
  % Inhibition, Mean: 73%
  % Inhibition, Run 1 / Run 2: 76% and 70%
  mean % activity: 27%
[1]; RSK1, duplicate runs
  % activity: 24% and 30%
[2]; ULK1
  % Inhibition, Mean: 30%
  mean % activity: 70%
[2]; ULK1, duplicate runs
  % activity: 58% and 82%
[3]
  % Inhibition, Mean: 29%
  mean % activity: 71%
[3]; duplicate runs
  % activity: 58% and 84%
[4]
  % Activation, Mean value: 0.8%
  % Inhibition, Mean: -0.8%
  % Inhibition, Run 1 / Run 2: 2% and -3.6%
  mean % activity: 101%
[4]; duplicate runs
  % activity: 98% and 104%
[5]; NEK6
  % Inhibition, Mean: 22%
  % Inhibition, Run 1 / Run 2: 25% and 20%
  mean % activity: 78%
[5]; NEK6, duplicate runs
  % activity: 75% and 81%

## [Cu+2].[Cu+2].[Cu+2].c1ccc(-c2csc(NCCN(CCNc3nc(-c4ccccn4)cs3)CCNc3nc(-c4ccccn4)cs3)n2)nc1.c1ccc(-c2csc(NCCN(CCNc3nc(-c4ccccn4)cs3)CCNc3nc(-c4ccccn4)cs3)n2)nc1 [[L2Cu3]6+]
[1]; RSK1
  % Inhibition Run 1: 96.7%
  % Inhibition Run 2: 97%
  % Inhibition, Mean: 97%
  mean % activity: 3%
[1]; RSK1, Run 1
  % activity: 3.3%
[1]; RSK1, Run 2
  % activity: 3%
[1]; RSK1, 10 µM
  % Activity inhibition Mean: 96.9%
  % Activity inhibition Run 1: 96.7%
  % Activity inhibition Run 2: 97%
  % Activity remaining Run 1: 3.30%
  % Activity remaining Run 2: 3.00%
[2]; ULK1
  % Inhibition Run 1: 75.8%
  % Inhibition Run 2: 76.3%
  % Inhibition, Mean: 76%
  mean % activity: 24%
[2]; ULK1, Run 1
  % activity: 24.2%
[2]; ULK1, Run 2
  % activity: 23.7%
[3]
  % Inhibition Run 1: 88%
  % Inhibition Run 2: 79.4%
  % Inhibition, Mean: 84%
  mean % activity: 16%
[3]; Run 1
  % activity: 12%
[3]; Run 2
  % activity: 20.6%
[4]
  % Inhibition Run 1: 60.6%
  % Inhibition Run 2: 65.9%
  % Inhibition, Mean: 63%
  mean % activity: 37%
[4]; Run 1
  % activity: 39.4%
[4]; Run 2
  % activity: 34.1%
[5]; NEK6
  % Inhibition Run 1: 34.4%
  % Inhibition Run 2: 27.1%
  % Inhibition, Mean: 31%
  mean % activity: 69%
[5]; NEK6, Run 1
  % activity: 65.6%
[5]; NEK6, Run 2
  % activity: 72.9%

Source: publication PMC8222254, “Self-assembly of an anion receptor with metal-dependent kinase inhibition and potent in vitro anti-cancer properties” (Nature Communications, 2021)
